Assay results as given in ChEMBL document CHEMBL4602656, “Synthesis and evaluation of 4-(1,3,4-oxadiazol-2-yl)-benzenesulfonamides as potent carbonic anhydrase inhibitors” (Bioorg Med Chem Lett, 2020).
The source made the active and inactive calls. The rule behind the calls is not given here.

Key:
HEK-293T = assay: Cytotoxicity against human HEK293T cells assessed as reduction in cell viability at 5 to 200 uM incubated for 48 hrs by MTS assay; type: cell-based
Mus musculus = assay: Anti-hypoxia in mouse assessed as increase in mouse survival at 400 mg/kg, po administered for 3 days and observed upto day 3 after dosing of 1.5 hrs; type: functional, organism-based
[1] = Solubility of compound; type: physicochemical

With `CN(C)c1ccc(-c2nnc(-c3ccc(S(N)(=O)=O)cc3)o2)cc1.CS(=O)(=O)O` the Activity (HEK-293T) was “Non-Toxic” and the Activity (Mus musculus) was “Active”.
In the case of `CC(=O)Nc1nnc(S(N)(=O)=O)s1` [ACETAZOLAMIDE], the Activity (HEK-293T) is reported as “Non-Toxic” and the Activity (Mus musculus) is reported as “Active”.
With `NS(=O)(=O)c1ccc(-c2nnc(-c3cccc(Cl)c3Cl)o2)cc1` the Activity (HEK-293T) was “Non-Toxic” and the solubility [1] was “Insoluble”.
For `Cc1ccc(-c2nnc(-c3ccc(S(N)(=O)=O)cc3)o2)c(C)c1`, the Activity (HEK-293T) was “Non-Toxic” and the solubility [1] was “Insoluble”.
